Assay results: the supplement of paper PMC10307832

Experiments:
Test in all cases: relative viability (nuclei count vs DMSO), 5 days (fraction); higher = more cells survive
[1] = compound: O=C(O)C(Cc1ccccc1[N+](=O)[O-])=NNc1nc(-c2ccc(Cl)c(Cl)c2)cs1 (mixture of isomers) [4EGI-1] + COc1cccc2cc(-c3nc([C@H]4CC[C@H](C(=O)O)CC4)n4ncnc(N)c34)[nH]c12 [OSI-027] (partner 0.5 µM)
In short: (§1)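 For relative viability, nuclei counts in treated wells were divided by those in vehicle wells. Lung cancer cell lines had been pin-tool dosed in 1536-well plates the day after seeding and cultured for 5 days, then fixed and stained in one step (final 0.05% Triton X-100, 1% formaldehyde, 1 ug/ml Hoechst) and imaged at 4×. Doses were one drug alone or a fixed anchor-drug dose plus five library-drug doses (not always all listed) in √10 steps, and values are duplicate-plate medians.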

[2] = compound: O=C(O)C(Cc1ccccc1[N+](=O)[O-])=NNc1nc(-c2ccc(Cl)c(Cl)c2)cs1 (mixture of isomers) [4EGI-1] + C[C@]1(O)C[C@@H](c2nc(-c3ccc4ccc(-c5ccccc5)nc4c3)c3c(N)nccn32)C1 [Linsitinib] (partner 1 µM)
In short: as §1

[3] = compound: O=C(O)C(Cc1ccccc1[N+](=O)[O-])=NNc1nc(-c2ccc(Cl)c(Cl)c2)cs1 (mixture of isomers) [4EGI-1] + O=C(CCCCCCC(=O)Nc1ccccc1)NO [Vorinostat] (partner 1 µM)
In short: as §1

[4] = compound: O=C(O)C(Cc1ccccc1[N+](=O)[O-])=NNc1nc(-c2ccc(Cl)c(Cl)c2)cs1 (mixture of isomers) [4EGI-1] + Cc1nc(NC(=O)N2CCC[C@H]2C(N)=O)sc1-c1ccnc(C(C)(C)C(F)(F)F)c1 [Alpelisib] (partner 2 µM)
In short: as §1

Cell Line | relative viability ([1]; first compound 0.5 µM) | relative viability ([1]; first compound 1.581 µM) | relative viability ([1]; first compound 5 µM) | relative viability ([1]; first compound 15.81 µM) | relative viability ([1]; first compound 50 µM) | relative viability ([2]; first compound 0.5 µM) | relative viability ([2]; first compound 1.581 µM) | relative viability ([2]; first compound 5 µM) | relative viability ([2]; first compound 15.81 µM) | relative viability ([2]; first compound 50 µM) | relative viability ([3]; first compound 0.5 µM) | relative viability ([3]; first compound 1.581 µM) | relative viability ([3]; first compound 5 µM) | relative viability ([3]; first compound 15.81 µM) | relative viability ([3]; first compound 50 µM) | relative viability ([4]; first compound 0.5 µM) | relative viability ([4]; first compound 1.581 µM) | relative viability ([4]; first compound 5 µM) | relative viability ([4]; first compound 15.81 µM) | relative viability ([4]; first compound 50 µM)
201T | 0.791 | 0.622 | 0.824 | 0.704 | 0.656 | 1.04 | 0.922 | 1.03 | 0.913 | 0.899 | 1.11 | 1.03 | 1.07 | 0.852 | 0.559 | 1.03 | 0.997 | 1.09 | 1.03 | 0.97
A549 |  |  |  |  |  | 0.825 |  | 0.573 | 0.579 | 0.611 |  |  |  |  |  | 0.801 | 0.479 | 0.984 | 0.611 | 0.273
A-427 | 0.604 | 0.386 | 0.534 | 0.44 | 0.152 | 1.09 | 0.93 | 1.03 | 1.07 | 0.618 | 0.865 |  | 0.882 | 0.646 | 0.2 | 1.04 | 0.968 | 1.07 | 0.991 | 0.759
ABC-1 | 0.642 | 0.357 | 0.455 | 0.313 | 0.218 | 0.977 | 0.863 | 0.806 | 0.68 | 0.419 | 1.16 |  | 1.35 | 0.439 | 0.284 | 1.07 | 1.03 | 1.02 | 0.74 | 0.405
BEN | 0.328 | 0.281 | 0.324 | 0.317 | 0.26 | 1.02 | 1.03 | 1.02 | 0.808 | 0.729 | 0.63 | 0.599 | 0.589 | 0.557 | 0.442 | 1.05 | 1.17 | 1.11 | 1.07 | 0.915
CAL-12T | 0.822 | 0.413 | 0.755 | 0.522 | 0.21 | 0.87 | 0.598 | 0.922 | 0.779 | 0.859 | 0.964 |  | 0.95 | 0.759 | 0.67 | 1.24 |  | 1.28 | 1.25 | 1.15
COR-L23 | 0.899 | 0.459 | 0.848 | 0.542 | 0.138 | 1.05 | 0.814 | 0.918 | 0.492 | 0.162 | 0.672 | 0.261 | 0.618 | 0.345 | 0.103 | 0.873 | 0.509 | 0.885 | 0.562 | 0.112
COR-L 105 | 0.937 | 0.572 | 0.718 | 0.434 | 0.535 | 1.04 | 0.85 | 0.999 | 0.988 | 0.675 | 0.823 | 0.672 | 0.777 | 0.699 | 0.592 | 1.2 | 0.818 | 1.04 | 0.89 | 0.599
Calu-6 |  |  |  |  |  | 1.11 | 0.729 | 0.995 | 0.851 | 0.9 |  |  |  |  |  | 1.08 | 0.493 | 1.21 | 0.933 | 0.375
ChaGo-K-1 | 0.595 | 0.526 | 0.558 | 0.483 | 0.381 |  |  |  |  |  | 0.779 | 0.61 | 0.796 | 0.781 | 0.347 |  |  |  |  | 
EBC-1 |  |  |  |  |  | 0.992 | 1 | 0.995 | 0.652 | 1.04 |  |  |  |  |  | 0.947 | 0.876 | 1.08 | 0.477 | 0.273
IA-LM |  |  |  |  |  | 0.536 | 0.492 | 0.649 | 0.251 | 0.163 | 1.04 | 0.91 | 0.871 | 0.698 | 0.261 | 0.916 | 0.647 | 0.586 | 0.149 | 0.0833
NCI-H522 | 0.69 | 0.645 | 0.693 | 0.689 | 0.63 |  |  |  |  |  | 0.812 | 0.903 | 0.954 | 1.03 | 0.634 |  |  |  |  | 
NCI-H1299 |  |  |  |  |  | 0.944 | 0.931 | 0.994 | 1.05 | 0.849 |  |  |  |  |  | 1.03 | 1.08 | 0.989 | 0.955 | 1.04
NCI-H1563 | 0.788 | 0.752 | 0.85 | 0.736 | 0.665 | 1.31 | 0.979 | 1.29 | 1.22 | 0.883 |  |  |  |  |  | 0.998 | 0.884 | 0.983 | 0.906 | 0.697
NCI-H1623 | 0.457 | 0.418 | 0.475 | 0.324 | 0.382 |  |  |  |  |  |  |  |  |  |  |  |  |  |  | 
NCI-H1648 | 0.254 | 0.26 | 0.252 | 0.302 | 0.213 |  |  |  |  |  | 1.18 | 0.388 | 0.351 | 0.414 | 0.474 |  |  |  |  | 
NCI-H1650 | 0.705 |  | 0.681 | 0.263 | 0.173 |  |  |  |  |  | 0.637 |  | 0.649 | 0.356 | 0.157 |  |  |  |  | 
NCI-H1703 |  |  |  |  |  | 1.4 | 0.632 | 1.06 | 1.27 | 0.994 |  |  |  |  |  | 0.414 | 0.305 | 0.387 | 0.338 | 0.381
NCI-H2170 | 0.785 | 0.63 | 0.713 | 0.558 | 0.391 |  |  |  |  |  | 0.936 | 0.749 | 0.842 | 0.699 | 0.585 | 0.865 | 0.803 | 0.849 | 0.768 | 0.344
NCI-H2342 | 0.596 | 0.644 | 0.62 | 0.625 | 0.517 |  |  |  |  |  | 0.765 | 0.664 | 0.833 | 0.835 | 0.712 |  |  |  |  | 
SW 900 | 0.72 |  | 0.586 | 0.46 | 0.207 |  |  |  |  |  | 0.615 | 0.59 | 0.503 | 0.314 | 0.15 |  |  |  |  | 
